Reference: patent US9241930B2, “Compositions and methods for treating viral diseases” (NovaDrug, LLC, priority 2011, dated 2016)

Tested on: mouse bone marrow polychromatic erythrocytes
Conditions: mice, single oral gavage

O=P1(N(CCCl)CCCl)NCCCO1 (centres unmarked) [Cyclophosphamide monohydrate]
bone marrow cytotoxicity (erythropoiesis): some cytotoxicity
incidence of micronucleated polychromatic erythrocytes (48 hour time-point, p≦0.05): significant increase
